Values of other authors, collected in publication PMC8554823 (ACS Central Science, 2021).

Target: human granzyme B (Homo sapiens, UniProt P10144)
Conditions: previously reported value for IEPD alone

Chain of human granzyme B (P10144 21-247): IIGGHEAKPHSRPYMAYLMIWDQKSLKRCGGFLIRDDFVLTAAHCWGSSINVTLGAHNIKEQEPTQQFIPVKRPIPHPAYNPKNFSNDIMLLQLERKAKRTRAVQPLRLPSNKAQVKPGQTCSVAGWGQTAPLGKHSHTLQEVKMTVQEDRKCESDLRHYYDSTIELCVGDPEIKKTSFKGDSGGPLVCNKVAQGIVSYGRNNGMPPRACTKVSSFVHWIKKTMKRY

catalytic efficiency (kcat/Km): ~3300 M^–1 s^–1
Substance: IEPD
